The first assay deals with CD34^+CD38^− cells. As to the kind of experiment: Expansion of CD34+CD38− cells from human cord blood-derived CD34+ cells (Example 2). Format: cell-based. As to conditions: 1 μg/mL compound, 50 ng/mL SCF, StemSpan SFEM, 7 days; based on number of CD34+CD38− cells in the absence of compound. As to the method:
The human cord blood-derived CD34^+ cells collected or purchased in Example 1 were plated on a 24-well plate (TPP) (10000 cells/1/mL/well). As the culture medium, StemSpan SFEM (Stemcell Technologies) containing 50 ng/mL SCF (Peprotech) was used, and Compounds No. 1 to 133 dissolved in dimethyl sulfoxide were added in an amount of 0.1% (v/v) to a final concentration of 1 μg/mL.
After the cells were incubated in liquid culture at 37° C. for 7 days in a CO2 incubator (5% CO2), the number of viable cells was counted by trypan blue assay. The number of CD34^+CD38^− cells was calculated as follows. After the incubation, the cells in the liquid culture was stained with a CD34 antibody (APC, Becton, Dickinson and Company) and a CD38 antibody (PE, Becton, Dickinson and Company), then washed with PBS(−) containing 2% (v/v) FBS and stained with propidium iodide (Sigma-Aldrich Japan) added to a final concentration of 5 μg/mL. The stained cells were analyzed with a flow cytometer JSAN (Bay Bioscience) to determined the proportion of CD34^+CD38^− cells, which was multiplied by the number of viable cells to calculate the number of CD34^+CD38^− cells.
The expansion efficiencies in the presence of 1 μg/mL of compounds based on the number of CD34^+CD38^− cells in the absence of them are shown in Tables 2 and 3 on a scale of A for expansion efficiencies of 10 or greater, B for expansion efficiencies of at least 5 and less than 10, and C for expansion efficiencies of at least 3 and less than 5.
Turning to `C/C(=N\NC(=O)c1ccc(C(=O)NCCO)s1)c1csc(-c2ccc(Cl)cc2)c1O` [compound 70], the Expansion efficiency result was “B (B for expansion efficiencies of at least 5 and less than 10)”.

The assay is the same for the next values; noted with them: Homo sapiens, 168 h, 1 μg/mL compound, 50 ng/mL SCF, StemSpan SFEM, 7 days; based on number of CD34+CD38− cells in the absence of compound; read-out: Expansion efficiency.
Take `COc1cc(CNC(=O)c2ccc(C(=O)N/N=C(\C)c3csc(-c4ccc(C(F)(F)F)cc4)c3O)s2)on1` [compound 50]: the fold induction at 1 µg/mL was 5 to 10. The same measure, in the same setting: as for `C/C(=N\NC(=O)c1ccc(C(=O)NCc2cnc(C)cn2)s1)c1csc(-c2ccc(Cl)c(Cl)c2)c1O` [compound 39], the figure is 5 to 10. Take `C/C(=N\NC(=O)c1ccc(C(=O)NCc2cccs2)s1)c1csc(-c2cccc(Cl)c2)c1O` [compound 30]: the fold induction at 1 µg/mL lay in the range of 5 to 10. `COc1ccc(-c2scc(/C(C)=N/NC(=O)c3ccc(C(=O)NCc4cc(C)n(C)n4)s3)c2O)cc1` [compound 129]: the fold induction at 1 µg/mL is ≥ 10. The same measure, in the same setting: the figure for `C/C(=N\NC(=O)c1ccc(C(=O)NCc2cncn2C)s1)c1csc(-c2ccc(Cl)c(Cl)c2)c1O` [compound 51] is 5 to 10.

For the compound `C/C(=N\NC(=O)c1ccc(C(=O)NCc2cccc(C(N)=O)c2)s1)c1csc(-c2ccc(OC(F)(F)F)cc2)c1O` [compound 97], the fold induction at 1 µg/mL is ≥ 10. `C/C(=N\NC(=O)c1ccc(C(=O)N(C)Cc2ccccc2)s1)c1csc(-c2cccc(Cl)c2)c1O` [compound 79]: the fold induction at 1 µg/mL was in the range of 3 to 5. The same measure, in the same setting: as for `C/C(=N\NC(=O)c1ccc(C(=O)NCCO)s1)c1csc(-c2ccc(Cl)c(Cl)c2)c1O` [compound 65], the figure is 5 to 10; as for `COc1ccc(-c2scc(/C(C)=N/NC(=O)c3ccc(C(=O)NCc4ccccc4C(N)=O)s3)c2O)cc1` [compound 105], 5 to 10; as for `C/C(=N\NC(=O)c1ccc(C(=O)NCc2ccccn2)s1)c1csc(-c2ccc(Cl)cc2)c1O` [compound 32], 5 to 10. Turning to `C/C(=N\NC(=O)c1ccc(C(=O)NCCO)s1)c1csc(-c2ccc(Cl)cc2)c1O` [compound 10], the fold induction at 1 µg/mL was ≥ 10. `CC(=O)Nc1ccc(C(C)NC(=O)c2ccc(C(=O)N/N=C(\C)c3csc(-c4ccc(C(F)(F)F)cc4)c3O)s2)cc1` (stereo not shown) [compound 123]: the fold induction at 1 µg/mL was ≥ 10.

With `CCN(CC)C(=O)c1ccc(C(=O)N/N=C(\C)c2csc(-c3ccc(Cl)cc3)c2O)s1` [compound 71], the fold induction at 1 µg/mL was 5 to 10. As for `C/C(=N\NC(=O)c1ccc(C(=O)NC(C)c2ccc(C(N)=O)cc2)s1)c1csc(-c2ccc(C(F)(F)F)cc2)c1O` (stereo not shown) [compound 116], the fold induction at 1 µg/mL is ≥ 10.

Regarding `C/C(=N\NC(=O)c1ccc(C(=O)NCc2cscn2)s1)c1csc(-c2ccc(Cl)c(Cl)c2)c1O` [compound 35], the fold induction at 1 µg/mL was in the range of 5 to 10. Same read-out and setting: the figure for `COc1ccc(-c2scc(/C(C)=N/NC(=O)c3ccc(C(=O)NCc4cn(C)cn4)s3)c2O)cc1` [compound 133] is ≥ 10; for `COc1cc(CNC(=O)c2ccc(C(=O)N/N=C(\C)c3csc(-c4ccc(Cl)cc4)c3O)s2)on1` [compound 17] it is ≥ 10; for `C/C(=N\NC(=O)c1ccc(C(=O)NCc2cc(C)n(C)n2)s1)c1csc(-c2ccc(OC(F)(F)F)cc2)c1O` [compound 128] it is ≥ 10. Still for that read-out and setting: the figure for `C/C(=N\NC(=O)c1ccc(C(=O)NC(C)c2ccc(C(N)=O)cc2)s1)c1csc(-c2ccc(OC(F)(F)F)cc2)c1O` (stereo not shown) [compound 118] is ≥ 10; for `C/C(=N\NC(=O)c1ccc(C(=O)NCc2ncccn2)s1)c1csc(-c2ccc(Cl)c(Cl)c2)c1O` [compound 36] it is ≥ 10; for `C/C(=N\NC(=O)c1ccc(C(=O)NCc2cc(C)on2)s1)c1csc(-c2ccc(C(F)(F)F)cc2)c1O` [compound 46] it is 5 to 10. Same read-out and setting: the figure for `C/C(=N\NC(=O)c1ccc(C(=O)NCCN2CCOCC2)s1)c1csc(-c2ccc(Br)cc2)c1O` [compound 34] is 3 to 5; for `C/C(=N\NC(=O)c1ccc(C(=O)NCc2ccnnc2)s1)c1csc(-c2ccc(Cl)c(Cl)c2)c1O` [compound 43] it is ≥ 10. Regarding `C/C(=N\NC(=O)c1ccc(C(=O)NCc2cc[n+]([O-])cc2)s1)c1csc(-c2ccc(Cl)c(Cl)c2)c1O` [compound 3], the fold induction at 1 µg/mL was ≥ 10. `CNC(=O)c1ccc(CNC(=O)c2ccc(C(=O)N/N=C(\C)c3csc(-c4ccc(Cl)c(Cl)c4)c3O)s2)cc1` [compound 106]: the fold induction at 1 µg/mL was ≥ 10.

Consider `C/C(=N\NC(=O)c1ccc(C(=O)NCc2cnc(C)cn2)s1)c1csc(-c2ccc(OC(F)(F)F)cc2)c1O` [compound 14], for which the fold induction at 1 µg/mL was ≥ 10. Still for that read-out and setting: as for `C/C(=N\NC(=O)c1ccc(C(=O)NCc2ccc(S(C)(=O)=O)cc2)s1)c1csc(-c2ccc(Cl)c(Cl)c2)c1O` [compound 59], the figure is 5 to 10; as for `C/C(=N\NC(=O)c1ccc(C(=O)NCc2ccncc2)s1)c1csc(-c2ccc(Cl)c(Cl)c2)c1O` [compound 5], ≥ 10. The same measure, in the same setting: the figure for `C/C(=N\NC(=O)c1ccc(C(=O)NCc2ccc(S(N)(=O)=O)cc2)s1)c1csc(-c2ccc(Cl)c(Cl)c2)c1O` [compound 61] is 5 to 10; for `COc1cc(CNC(=O)c2ccc(C(=O)N/N=C(\C)c3csc(-c4ccc(Cl)c(Cl)c4)c3O)s2)on1` [compound 7] it is ≥ 10; for `C/C(=N\NC(=O)c1ccc(C(=O)NCc2ccno2)s1)c1csc(-c2ccc(C(F)(F)F)cc2)c1O` [compound 48] it is 5 to 10.

`C/C(=N\NC(=O)c1ccc(C(=O)NCc2cccc(C(N)=O)c2)s1)c1csc(-c2ccc(Cl)c(Cl)c2)c1O` [compound 92]: the fold induction at 1 µg/mL was ≥ 10.

Regarding `C/C(=N\NC(=O)c1ccc(C(=O)NCc2cccs2)s1)c1csc(-c2ccc(Cl)cc2)c1` [compound 12], the fold induction at 1 µg/mL is ≥ 10. Consider `C/C(=N\NC(=O)c1ccc(C(=O)NCc2cccc(C(N)=O)c2)s1)c1csc(-c2ccc(Cl)cc2)c1O` [compound 96], for which the fold induction at 1 µg/mL is ≥ 10. On the same count and under the same terms, as for `C/C(=N\NC(=O)c1ccc(C(=O)NCc2cn(C)cn2)s1)c1csc(-c2ccc(C(F)(F)F)cc2)c1O` [compound 55], the figure is 5 to 10; as for `CC(=O)Nc1ccc(C(C)NC(=O)c2ccc(C(=O)N/N=C(\C)c3csc(-c4ccc(Br)cc4)c3O)s2)cc1` (stereo not shown) [compound 122], ≥ 10. Regarding `C/C(=N\NC(=O)c1ccc(C(=O)NCCCN(C)C)s1)c1csc(-c2ccc(Cl)c(Cl)c2)c1O` [compound 64], the fold induction at 1 µg/mL fell in the range of 3 to 5.

As to `CNC(=O)c1ccc(CNC(=O)c2ccc(C(=O)N/N=C(\C)c3csc(-c4ccc(C(C)(C)C)cc4)c3O)s2)cc1` [compound 107], the fold induction at 1 µg/mL is ≥ 10. With `CNC(=O)c1ccc(CNC(=O)c2ccc(C(=O)N/N=C(\C)c3csc(-c4ccc(C(F)(F)F)cc4)c3O)s2)cc1` [compound 109], the fold induction at 1 µg/mL was ≥ 10. Turning to `CCCCCN(C)C(=O)c1ccc(C(=O)N/N=C(\C)c2csc(-c3ccc(Cl)c(Cl)c3)c2O)s1` [compound 27], the fold induction at 1 µg/mL was in the range of 5 to 10. Same read-out and setting: as for `CCCNC(=O)c1ccc(C(=O)N/N=C(\C)c2csc(-c3ccc(Cl)c(Cl)c3)c2O)s1` [compound 62], the figure is 3 to 5; as for `C/C(=N\NC(=O)c1ccc(C(=O)NCc2c(C)nn(C)c2C)s1)c1csc(-c2ccc(C(F)(F)F)cc2)c1O` [compound 49], 5 to 10; as for `C/C(=N\NC(=O)c1ccc(C(=O)NCc2cc(C)n(C)n2)s1)c1csc(-c2ccc(Cl)cc2)c1O` [compound 19], ≥ 10. On the same count and under the same terms, the figure for `C/C(=N\NC(=O)c1ccc(C(=O)NCc2cc(C)n(C)n2)s1)c1csc(-c2ccc(C(F)(F)F)cc2)c1O` [compound 56] is 5 to 10.

Take `C/C(=N\NC(=O)c1ccc(C(=O)NCc2cc[n+]([O-])cc2)s1)c1csc(-c2ccc(Cl)cc2)c1O` [compound 18]: the fold induction at 1 µg/mL was ≥ 10. Still for that read-out and setting: as for `C/C(=N\NC(=O)c1ccc(C(=O)NCc2ccc(C(N)=O)cc2)s1)c1csc(-c2ccc(C(C)(C)C)cc2)c1O` [compound 86], the figure is ≥ 10. As for `C/C(=N\NC(=O)c1ccc(C(=O)NCc2ccccc2C(N)=O)s1)c1csc(-c2ccc(Cl)cc2)c1O` [compound 103], the fold induction at 1 µg/mL was ≥ 10. On to `C/C(=N\NC(=O)c1ccc(C(=O)NCCN2CCCC2)s1)c1csc(-c2ccc(Cl)c(Cl)c2)c1O` [compound 67], for which the fold induction at 1 µg/mL is 3 to 5. Same read-out and setting: the figure for `C/C(=N\NC(=O)c1ccc(C(=O)NCc2cc[n+]([O-])cc2)s1)c1csc(-c2ccc(C(F)(F)F)cc2)c1O` [compound 57] is 5 to 10; for `C/C(=N\NC(=O)c1ccc(C(=O)NC2CCCC2)s1)c1csc(-c2ccc(Cl)c(Cl)c2)c1O` [compound 63] it is 3 to 5; for `COc1ccc(-c2scc(/C(C)=N/NC(=O)c3ccc(C(=O)NCc4ccc(C(N)=O)cc4)s3)c2O)cc1` [compound 91] it is ≥ 10.
